Measurements reported in patent US20220187282A1, “CARDIOMYOCYTE PROLIFERATION” (The Council of the Queensland Institute of Medical Research, priority 2019, published 2022).

What was measured:
[1] = test system: mature hCO; assay: single organoid quantitative proteomics of mature hCO; assay type: cell-based, human; conditions: for cell cycle programs regulated at the protein level: mature hCO, 2 days
Procedure: Single hCO were washed 2× in PBS and snap frozen and stored at −80° C. Tissues were lysed in by tip-probe sonication in 1% SDS containing 100 mM Tris pH 8.0, 10 mM tris(2-carboxyethyl)phosphine, 40 mM 2-chloroacetamide and heated to 95° C. for 5 min. Proteins were purified using a modified Single-Pot Solid-Phase-enhanced Sample Preparation (SP3) strategy (Hughes et al., 2014). Briefly, Proteins were bound to Sera-Mag carboxylate coated paramagnetic beads in 50% acetonitrile containing 0.8% formic acid (v/v) (ThermoFisher Scientific). The beads were washed twice with 70% ethanol (v/v) and once with 100% acetonitrile. Proteins were digested on the beads in 100 mM Tris pH 7.5 containing 10% 2,2,2-Trifluoroethanol overnight at 37° C. with 200 ng of sequencing grade LysC (Wako Chemicals) and trypsin (Sigma). Beads were removed and peptides acidified to 1% trifluoroacetic acid prior to purification by styrene divinyl benzene-reversed phase sulfonated solid phase extraction microcolumns. Peptides were spiked with iRT peptides (Biognosys) and analysed on an Easy-nLC1200 coupled to a Q-Exactive HF in positive polarity mode. Peptides were separated using an in-house packed 75 μm×50 cm pulled column (1.9 μm particle size, C18AQ; Dr Maisch) with a gradient of 2-35% acetonitrile containing 0.1% FA over 120 min at 300 nL/min at 60° C. The instrument was operated in data-independent acquisition (DIA) mode essentially as described previously (Bruderer et al., 2017). Briefly, an MS1 scan was acquired from 350-1650 m/z (120,000 resolution, 3e6 AGC, 50 ms injection time) followed by 20 MS/MS variable sized isolation windows with HCD (30,000 resolution, 3e6 AGC, 27 NCE). A spectral library was created by fractionating a pooled mix of peptides from 10 separate hCO on an inhouse packed 320 μm×25 cm column (3 μm particle size, BEH; Waters) with a gradient of 2-40% acetonitrile containing 10 mM ammonium formate over 60 min at 6 μL/min using an Agilent 1260 HPLC. A total of 12 concatenated fractions were analysed using the identical LC-MS/MS conditions above except the instrument was operated in data-dependent acquisition (DDA) mode. Briefly, an MS1 scan was acquired from 350-1650 m/z (60,000 resolution, 3e6 AGC, 50 ms injection time) followed by 20 MS/MS with HCD (1.4 m/z isolation, 15,000 resolution, 1e5 AGC, 27 NCE). DDA data were processed with Andromeda in MaxQuant v1.5.8.3 (Cox and Mann, 2008) against the human UniProt database (January 2016) using all default settings with peptide spectral matches and protein false discovery rate (FDR) set to 1%. DIA data were processed with Spectronaut v11 (Bruderer et al., 2015) using all default settings with precursor and protein FDR set to 1% and quantification performed at MS2.
Proteomic data were Log 2 transformed and median normalised. Removal of unwanted variation method (RUV) was applied to remove any batch effects (Gagnon-Bartsch et al., 2013). Differential abundance was determined with two sample t-tests with FDR-based multiple hypothesis testing correction. GO analysis was performed with DAVID v6.8 and gene ontology terms from BP_FAT (Huang da et al., 2009) and heat-maps and hierarchical clustering was performed using GENE-E (Broad Institute).
In order to determine the biological processes driving the pro-proliferative effects of our hit compounds, we performed RNA-sequencing (RNA-seq) and single organoid quantitative proteomics (FIG. 4A). These analyses were performed on hCOs treated with compounds 3, 63 and 65 at concentrations of 3 μM, 0.3 μM and 1 μM, respectively. RNA-seq for hCO treated with compounds 3 and 65 clustered distinctly in principal component analysis (FIG. 4B) and regulated a total of 239 and 207 genes (FIG. 9A), respectively.

[2] = test system: immature hCOs; assay: immature hCO screen, force of contraction; assay type: cell-based, human; conditions: 2 days
Procedure: The pole deflection was used to approximate the force of contraction as per (Mills et al., 2017a). A Leica DMi8 inverted high content Imager was used to capture a 10 s time-lapse of each hCO contracting in real time at 37° C. Custom batch processing files were written in Matlab R2013a (Mathworks) to convert the stacked TIFF files to AVI, track the pole movement (using vision.PointTracker), determine the contractile parameters, produce a force-time figure, and export the batch data to an Excel (Microsoft) spreadsheet.
The compound library included 5,000 biologically annotated pre-clinical, clinical, and tool compounds. They were selected based on a combination of criteria including balancing the number of external/internal compounds, diversity of annotated targets to cover greater than 1500 biological targets, and known targets associated with cell proliferation. […] Both negative vehicle (DMSO) and positive (CHIR99021) controls were included on each plate in each experiment (FIG. 2B,C).

SMILES	proliferation signature proteins (cell cycle network, mevalonate enzymes, nuclear transporters) ([1]; mature hCO proteomics)	cell cycle programs regulated at the protein level [1]	contractile parameters / force of contraction [2]	induction of the mevalonate pathway (cholesterol biosynthetic process enzymes) ([1]; mature hCO proteomics)
Cc1ccc(NC(=O)c2ccnc(N3CCOCC3)c2)cc1Nc1ccnc(N2CC(C)OC(C)C2)n1 (stereo not shown) [compound 3]	induced	DNA replication, G1/S transition and G2/M transition	without affecting contractile parameters	–
Cc1cc(Oc2ccnc(Nc3ccc(S(N)(=O)=O)cc3)c2)c(-c2ccccn2)nc1C [compound 65]	induced	DNA replication, G1/S transition and G2/M transition	without affecting contractile parameters	most robust inducers
